# Columns and labels:
# [1] = test system: 5α-reductase type 2 (5AR2); assay: Western blot of 5AR2 expression in DHT-treated LNCaP cells; assay type: cell-based, human; details: 5 μM, DHT-induced LNCaP cells
# Procedure: (§1) Animal cells were cultured to investigate the effect of the Salvia miltiorrhiza Bunge extract of the present invention on benign prostatic hyperplasia or alopecia. Human prostate adenocarcinoma cell line LNCaP cells sensitive to androgens were used as animal cells, and purchased from the Korean Cell Line Bank (Seoul, Korea, KCLB #:21740). The cells were cultured in Roswell Park Memorial Institute (RPMI) medium supplemented with […] penicillin/streptomycin and 10% fetal bovine serum (FBS), and maintained in a CO2 incubator at 37° C.
# (§2) Goat anti-rabbit immunoglobulin G (IgG, 7074) and anti-mouse IgG (7076) were purchased from Cell Signaling (Danvers, Mass.). […]
# (§3) The LNCaP cells were seeded onto 6-well plates (1×10^6 cells/well) in 2 mL of RPMI medium supplemented with 10% FBS, 100 U/mL penicillin, and […] streptomycin. […] The lysed cells were centrifuged at 13,000 RPM for 20 minutes at 4° C., and the protein concentration was determined using BCA assay. […] The chemiluminescent intensities of protein signals were quantified using ImageJ 1.47 v software, and the results are shown in FIG. 2. The data obtained by SPSS version 11.5 for Windows (SPSS Inc., Chicago, Ill., USA) were expressed as the means±standard errors of the means (SEM). […]
# [2] = test system: androgen receptor (AR); assay: Western blot of AR expression in DHT-treated LNCaP cells; assay type: cell-based, human; details: 5 μM, same concentration as tanshinone2a, DHT-induced LNCaP cells
# Procedure: as §1, §2, §3
# [3] = test system: steroid receptor coactivator-1 (SRC-1); assay: Western blot of SRC-1 expression in DHT-treated LNCaP cells; assay type: cell-based, human; details: 5 μM, DHT-induced LNCaP cells
# Procedure: as §1, §2, §3
# [4] = test system: prostate-specific antigen (PSA); assay: Western blot of PSA expression in DHT-treated LNCaP cells; assay type: cell-based, human; details: 5 μM, same concentration as tanshinone2a, DHT-induced LNCaP cells
# Procedure: as §1, §2, §3
# [5] = test system: androgen-related proteins; assay: Overall effect on androgen-related proteins increased by DHT in LNCaP cells; assay type: cell-based, human; details: 5 μM, compared among tanshinone1, tanshinone2a, cryptotanshinone, 15,16-dihydrotanshinone
# Procedure: as §1, §2, §3
# [6] = Body weight in benign prostatic hyperplasia animal models; assay type: in vivo, Sprague-Dawley rats; details: BPH rats, oral once/day 14 days; extracts and saw palmetto 10-25 mg/kg, finasteride 10 mg/kg
# Procedure: Sprague-Dawley rats aged 9 weeks (body weights of 350 g or less) were acclimated for one week or longer, and then used in tests. In order to induce benign prostatic hyperplasia, testicles were removed and then testosterone (dissolved in corn oil) was subcutaneously injected at a dose of 3 mg/kg once/three days for a total of 10 times. […] For the benign prostatic hyperplasia induction groups, testicles were removed and then […] (dissolved in corn oil) was subcutaneously injected at a dose of 3 mg/kg once/three days for a total of 10 times, by the same method as in Example 4.1. For the normal group, an equivalent amount of corn oil was subcutaneously injected. Salvia miltiorrhiza Bunge extracts T70 to T10 and saw palmetto fruit extract were dissolved in distilled water, and orally administered at a dose of 10-25 mg/kg once/day, for 14 days. For the finasteride administration group (Sigma, dissolved in 0.2% Tween 80), finasteride was orally administered at a dose of 10 mg/kg once/day for 14 days. For the negative control group, only distilled water was orally administered. The body weight was measured upon the end of the test, and on the next day after the ending of the last dosing and treatment, the SD-rats were sacrificed with carbon dioxide gas, and then the prostate tissue was extracted and the weight was measured. […]
# [7] = test system: cells; details: as reported by SHAN GAO, et al. (2019); cited from earlier work
structure (smiles),measurement,setting,value
"Cc1cccc2c3c(ccc12)C1=C(C(=O)C3=O)[C@@H](C)CO1 [15,16-dihydrotanshinone, (1R)-1,6-dimethyl-1,2-dihydronaphtho[1,2-g][1]benzofuran-10,11-dione]",inhibition of 5AR2 expression,[1],more effectively than tanshinone2a
same,inhibition of AR expression relative to tanshinone2a,[2],at least 5 times
same,inhibition of SRC-1 expression,[3],more effectively than tanshinone2a
same,inhibition of PSA expression relative to tanshinone2a,[4],at least 5 times
same,inhibitory effect on androgen-related proteins increased by DHT,[5],most inhibitory effect
CC(C)(C)NC(=O)[C@H]1CC[C@H]2[C@@H]3CC[C@H]4NC(=O)C=C[C@]4(C)[C@H]3CC[C@]12C [finasteride],body weight compared with control group (Con),[6],no great difference
O=C(/C=C/c1ccc(O)c2c1[C@H](C(=O)O[C@H](Cc1ccc(O)c(O)c1)C(=O)O)[C@@H](c1ccc(O)c(O)c1)O2)O[C@H](Cc1ccc(O)c(O)c1)C(=O)O [salvianolic acid B],cytotoxicity,[7],has cytotoxicity at a predetermined concentration
